Columns and labels:
[1] = target: T1, methionine adenosyltransferase 2A (MAT2A) (Homo sapiens, UniProt P31153); assay: microscale thermophoresis; type: binding
[2] = target: T1, methionine adenosyltransferase 2A (MAT2A); assay: HPLC SAM synthesis assay with purified MAT2A; type: biochemical

T1 sequence (P31153 whole entry): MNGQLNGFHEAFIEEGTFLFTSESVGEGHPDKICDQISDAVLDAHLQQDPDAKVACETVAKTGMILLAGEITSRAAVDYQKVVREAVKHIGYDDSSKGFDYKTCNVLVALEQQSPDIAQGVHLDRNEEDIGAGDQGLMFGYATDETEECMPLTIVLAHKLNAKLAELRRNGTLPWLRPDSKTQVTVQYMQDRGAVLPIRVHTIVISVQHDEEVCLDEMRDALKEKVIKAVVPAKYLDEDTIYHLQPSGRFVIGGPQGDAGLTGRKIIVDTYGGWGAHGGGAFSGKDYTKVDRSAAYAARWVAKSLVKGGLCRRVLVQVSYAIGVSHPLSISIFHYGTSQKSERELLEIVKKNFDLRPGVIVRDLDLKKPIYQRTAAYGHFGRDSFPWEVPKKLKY

Row | Compound | Kd [1] [nM] | HPLC SAM synthesis assay with purified MAT2A [2]
1 | CC(=O)O[C@@H]1CC[C@@]2(C)[C@@H](CC[C@]3(C)[C@@H]2C(=O)C=C2[C@@H]4[C@@H](C)[C@H](C)CC[C@]4(C)CC[C@]23C)[C@@]1(C)C(=O)O [compound 1, AKBA] | 129 ± 28 | 
2 | Nc1ncnc2c1ncn2[C@@H]1O[C@H](COP(=O)(O)OP(=O)(O)OP(=O)(O)O)[C@@H](O)[C@H]1O [ATP] |  | MAT2A was incubated with its substrates which were methionine and ATP, and SAM was formed
3 | CSCC[C@H](N)C(=O)O [methionine] |  | MAT2A was incubated with its substrates which were methionine and ATP, and SAM was formed
